Source: article PMC6788984, “High-potency ligands for DREADD imaging and activation in rodents and monkeys” (Nature Communications, 2019)
Several values for one entry are separate records, joined by “and”; a condition that tells them apart may be missing. Equal entries are not always repeated. Entries after “also recorded” stand apart in the source; their conditions may differ.

Tests used:
DREADDs = assay: [18F]JHU37107 PET in D1-DREADD transgenic mice; format: in vivo; details: D1-DREADD mice, 0.1 mg kg-1 IP
Protocol: [^18F]JHU37107 was prepared via the no-carrier-added ^18F-fluorination using an FDG Nuclear Interface module (Muenster, Germany). Briefly, 4 mg precursor (8-chloro-11-(4-ethylpiperazin-1-yl)-5H-dibenzo[b,e][1,4]diazepin-2-ol) and 8 mg tris(acetonitrile)cyclopentadienylruthenium(II)hexafluorophosphate (STREM, Boston, MA) were dissolved in ethanol (0.3 mL), the solution was heated at 85 °C for 25 min and evaporated to dryness under a stream of argon gas. The residue was dissolved in DMSO (0.5 mL) and acetonitrile (0.5 mL) and the solution was added to a dry complex of [^18F]fluoride and 9 mg 1,3-bis(2,6-di-i-propylphenyl)-2-chloroimidazolium chloride (STREM). The reaction mixture was heated at 130 °C for 30 min, diluted with mixture of 0.5 mL acetonitrile, 0.5 mL water and 0.03 mL TFA and injected onto a semi-preparative HPLC column (Luna C18, 10 micron, 10 mm × 250 mm) and eluted with 23:77 (v:v) acetonitrile:water (0.1% trifluoroacetic acid) at a flow rate of 10 mL min^−1. The radioactive peak corresponding to [^18F]JHU37107 (tR = 9.9 min) was collected in a reservoir containing 50 mL of water and 3 mL aq 8.4% NaHCO3 solution. The diluted product was loaded onto a solid phase extraction cartridge (Waters Oasis HLB plus light) and rinsed with 10 mL sterile saline. The product was eluted with 1000 µL of ethanol through a sterile 0.2 μm filter into a sterile, pyrogen-free vial and 10 mL saline was added through the same filter. The final product [^18F]JHU37107 was then analyzed by analytical HPLC (Luna C18, 10 micron, 4.6 mm × 250 mm; mobile phase 23:77 (v:v) acetonitrile:water (0.1% trifluoroacetic acid), flow rate of 3 mL min^−1; […] .
Total acquisition time was 60 min.

WT littermates = assay: Locomotor activity in WT littermate rats; format: in vivo, rat
Protocol: Tyrosine hydroxylase (TH):Cre rats (n = 9; founder, K. Deisseroth lab) or WT littermates (n = 9) were bilaterally injected with AAV2 hSyn-DIO-hM3Dq-mCherry (1ul/hemisphere, Addgene), and allowed to recover for 2 + weeks. Following handling, they were habituated to a Med Associates locomotor testing box (43 × 43 × 30.5 cm) for 2 h on 2 days, then repeatedly tested after separate day doses of DREADD agonists and vehicle. […]. Vehicle was administered on 2 separate days, and average locomotion was used for comparison with DREADD agonists. Cohort 2 underwent the same procedures, but with a 4 h testing session, and the following IP injections: vehicle (x2), JHU37152 (0.01–0.3 mg kg^−1), JHU37160 (0.01–0.3 mg kg^−1). All drugs were dissolved in 5% DMSO in saline, and injected 1 ml kg^−1. Following all tests, rats were transcardially perfused, brains sectioned coronally at 40 µm, and VTA-specific expression confirmed using endogenous mCherry reporter expression, which co-localized nearly exclusively with TH immunoreactivity.

cortical hM4Di = target: T1, cortical hM4Di (Homo sapiens, UniProt P08173, A203G/Y113C); assay: [11C]clozapine PET DREADD occupancy in rats; details: rat, read-out: occupancy of cortical hM4Di
T1 sequence (P08173 1-479 Y113C/A203G): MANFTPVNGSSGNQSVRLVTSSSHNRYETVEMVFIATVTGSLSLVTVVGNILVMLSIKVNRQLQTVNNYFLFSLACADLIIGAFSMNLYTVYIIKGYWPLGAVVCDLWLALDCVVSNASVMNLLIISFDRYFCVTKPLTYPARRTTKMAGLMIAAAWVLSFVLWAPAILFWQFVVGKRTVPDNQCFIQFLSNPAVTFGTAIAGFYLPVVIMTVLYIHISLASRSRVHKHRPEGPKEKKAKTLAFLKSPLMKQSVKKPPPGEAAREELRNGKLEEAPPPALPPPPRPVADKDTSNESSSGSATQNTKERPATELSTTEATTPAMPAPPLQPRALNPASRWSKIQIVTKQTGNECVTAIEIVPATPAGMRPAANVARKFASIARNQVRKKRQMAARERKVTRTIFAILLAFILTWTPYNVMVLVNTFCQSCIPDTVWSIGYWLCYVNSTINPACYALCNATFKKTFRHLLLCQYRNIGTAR
Protocol: (§1) Animals were anesthetized with isoflurane or a mix of ketamine/xylazine and prepped on a stereotaxic apparatus (Kopf, Germany). […] When indicated, animals were pretreated with vehicle or the indicated drug 10 min before the injection of the PET radiotracer. Total acquisition time was 60 min.
In all cases, the PET data were reconstructed and corrected for dead-time and radioactive decay. All qualitative and quantitative assessments of PET images were performed using the PMOD software environment (PMOD Technologies, Zurich Switzerland). Binding potential BPND (a relative measure of specific binding) was calculated using a reference tissue model using the cerebellum as a reference tissue in rodents. In macaques, the kinetic data were fitted to a two-tissue compartment model and the concentration of parent in plasma was used as an input function, then the volume of distribution ratios compared to cerebellum were calculated to establish BPND. […] Receptor occupancy was calculated using the formula: occupancy = (BPND^0 − BPND^Drug)/BPND^0 × 100, where BPND^0 is the binding potential of the baseline condition and BPND^Drug the binding potential when the animals were pretreated with the drug.

hM3Dq [1] = target: T2, hM3Dq (Homo sapiens, UniProt P20309, A239G/Y149C); assay: DREADD-assisted metabolic mapping (DREAMM), [18F]FDG PET in D1-hM3Dq mice; format: in vivo, mouse; design: 026220; host or cells: mouse brain, dopamine D1 receptor-expressing neurons (transgene); details: 0.1 mg kg-1 IP
T2 sequence (P20309 whole entry Y149C/A239G): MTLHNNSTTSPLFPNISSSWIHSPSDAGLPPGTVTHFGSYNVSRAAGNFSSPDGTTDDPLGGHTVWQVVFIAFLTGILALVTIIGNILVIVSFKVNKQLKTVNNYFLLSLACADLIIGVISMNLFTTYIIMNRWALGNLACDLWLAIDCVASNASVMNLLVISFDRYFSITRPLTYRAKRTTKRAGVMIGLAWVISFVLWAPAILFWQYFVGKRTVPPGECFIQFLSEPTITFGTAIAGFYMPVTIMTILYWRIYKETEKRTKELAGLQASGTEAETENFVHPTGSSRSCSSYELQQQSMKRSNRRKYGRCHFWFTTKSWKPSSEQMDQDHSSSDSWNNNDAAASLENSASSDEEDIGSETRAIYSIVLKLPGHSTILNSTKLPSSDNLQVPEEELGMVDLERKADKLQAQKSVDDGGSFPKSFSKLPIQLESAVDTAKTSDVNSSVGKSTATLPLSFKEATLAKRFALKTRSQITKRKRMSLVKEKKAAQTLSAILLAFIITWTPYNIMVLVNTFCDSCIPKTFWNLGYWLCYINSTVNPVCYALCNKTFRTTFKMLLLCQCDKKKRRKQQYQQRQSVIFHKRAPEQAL
Protocol: Mice (D1-hM3Dq, D1-hM4Di or WT littermates, see above) were habituated to experimenter handling and fasted 16 h before the experiment. On the day of the experiment, mice received an IP injection of vehicle (1 ml kg^−1) and were placed back into their home cages. Ten minutes later, mice were injected (IP) with 11 MBq of 2-deoxy-2-[^18F]fluoro-D-glucose (FDG, Cardinal Health) and placed back into their home cages. After 30 min, mice were anesthetized with 1.5% isoflurane, placed on a custom-made bed of a nanoScan small animal PET/CT scanner (Mediso Medical Imaging Systems) and scanned for 20 min on a static acquisition protocol, followed by a CT scan. […] Voxel-based repeated measures with Student’s t test comparing baseline to drug were performed, and the resulting parametric images were filtered for statistically significant (p < 0.05) clusters larger than 100 contiguous voxels. All statistical parametric mapping analyses were performed using Matlab R2016 (Mathworks) and SPM12 (University College London).

[2] = tested on: mu, kappa, and delta opioid receptors; assay: Binding and enzyme target profile screen (Eurofins); details: competitive binding screen, 10 uM
Protocol: These experiments were performed by an outside vendor (Eurofins, France). […] In each experiment, the respective reference compound was tested concurrently with the test compound to assess the assay reliability. […] Following incubation, the samples were filtered rapidly under vacuum through glass fiber filters presoaked in a buffer and rinsed several times with an ice-cold buffer using a 48-sample or 96-sample cell harvester. The filters were counted for radioactivity in a scintillation counter using a scintillation cocktail.

hM3Dq [3] = target: T2, hM3Dq; assay: [11C]clozapine PET DREADD occupancy in AAV-DREADD mice, hM3Dq; details: 0.1 mg kg-1 IP, individual values, listed as J52
Protocol: as §1
(§2) In all cases, the PET data were reconstructed and corrected for dead-time and radioactive decay. All qualitative and quantitative assessments of PET images were performed using the PMOD software environment (PMOD Technologies, Zurich Switzerland). Binding potential BPND (a relative measure of specific binding) was calculated using a reference tissue model using the cerebellum as a reference tissue in rodents. In macaques, the kinetic data were fitted to a two-tissue compartment model and the concentration of parent in plasma was used as an input function, then the volume of distribution ratios compared to cerebellum were calculated to establish BPND. In all cases, the dynamic PET images were coregistered to MRI templates and time-activity curves were generated using predefined volumes of interest (macaques) or manually drawn in rodents and the described analyses were performed. Receptor occupancy was calculated using the formula: occupancy = (BPND^0 − BPND^Drug)/BPND^0 × 100, where BPND^0 is the binding potential of the baseline condition and BPND^Drug the binding potential when the animals were pretreated with the drug.

hM4Di = target: T3, hM4Di (Homo sapiens, UniProt P08173, A203G/Y113C); assay: [11C]clozapine PET DREADD occupancy in AAV-DREADD mice, hM4Di; details: 0.1 mg kg-1 IP, individual values, listed as J52
T3 sequence (P08173 1-479 Y113C/A203G): T1 sequence (P08173 1-479 Y113C/A203G)
Protocol: as §1, §2

For `CCN1CCN(C2=Nc3cc(Cl)ccc3Nc3c(F)cccc32)CC1` [JHU37160, 8-Chloro-11-(4-ethylpiperazin-1-yl)-4-fluoro-5H-dibenzo[b,e][1,4]diazepine], which “displacement of [18F]JHU37107 PET signal” value (DREADDs) is on record?
Its value is “displaceable”.

And the “Locomotor activity, individual animals (Figure 3 Panel F)” value (WT littermates; dose 0.01, listed as J60)?
The value was 108.174 and 103.461 and 68.1848 and 77.4203 and 88.3922 and 59.3537 and 61.4668.

What about the “Locomotor activity, individual animals (Figure 3 Panel F)” value (WT littermates; dose 0.1, listed as J60) of the same compound?
Its value is 208.38 and 83.765 and 47.1951 and 156.41 and 190.369 and 42.7803 and 81.1685.

And the receptor occupancy at 0.1 mg/kg (cortical hM4Di)?
The receptor occupancy at 0.1 mg/kg was roughly 80%.

And the “brain metabolism ([18F]FDG)” value (hM3Dq [1])?
Its value is “decreased metabolism”.

Which “binding to opioid receptors” value [2] does the source give for `c1ccc2c(c1)N=C(N1CCNCC1)c1ccccc1N2` [C21] here?
The value was “exhibited binding to mu, kappa, and delta opioid receptors; also recorded: binds to opioid receptors”.

For `CCN1CCN(C2=Nc3cc(Cl)ccc3Nc3cccc(F)c32)CC1` [JHU37152, 8-Chloro-11-(4-ethylpiperazin-1-yl)-1-fluoro-5H-dibenzo[b,e][1,4]diazepine], which “displacement of in vivo [11C]clozapine binding, hM3Dq” value (hM3Dq [3]) is on record?
Its value is 25.1963 and 16.746 and 26.3837.

What about the “displacement of in vivo [11C]clozapine binding, hM4Di” value (hM4Di) of the same compound?
The value was -5.675 and 34.4851 and 23.8214.
